Positions count from the first letter of the chain named. Where a SMILES comes first, the peptide text is derived from it. Bridges are numbered along the chain shown (N, C = ends).
Experiments:
Assay in all cases: IP1 accumulation
Assay type in all cases: cell-based
Settings in all cases: mean ± S.E.M.; for Emax: IP1 maximal response, SEM
hCTR S364A = molecular target: T1, hCTR S364A (Homo sapiens, UniProt P30988, S364A)
T1 construct: c-Myc (N); expressed in transfected cells
T1 sequence (P30988 25-474 S364A): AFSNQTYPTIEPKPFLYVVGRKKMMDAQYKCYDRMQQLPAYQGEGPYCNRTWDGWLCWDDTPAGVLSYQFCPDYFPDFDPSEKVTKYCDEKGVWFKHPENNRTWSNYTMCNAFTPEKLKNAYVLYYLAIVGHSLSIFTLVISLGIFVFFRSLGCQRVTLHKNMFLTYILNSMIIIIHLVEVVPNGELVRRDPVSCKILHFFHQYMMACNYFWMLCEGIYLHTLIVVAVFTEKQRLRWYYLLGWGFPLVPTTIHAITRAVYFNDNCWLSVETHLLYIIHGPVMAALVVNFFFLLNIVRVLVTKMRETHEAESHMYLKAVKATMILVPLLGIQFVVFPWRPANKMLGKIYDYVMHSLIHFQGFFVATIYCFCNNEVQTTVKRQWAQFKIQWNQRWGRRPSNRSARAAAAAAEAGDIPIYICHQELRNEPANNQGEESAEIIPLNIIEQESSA
Description: (§1) Cells (2.5 × 10^4 cells/well) were plated into 96 well trays and cultured overnight. Cells were stimulated with increasing concentration of ligands for 60 min in the presence of LiCl. Samples were lysed and endogenous IP1 was measured using an IP-One HTRF® assay kit (CisBio) as specified by the manufacturer. Data were normalized to the maximal response elicited by 100 μM of ATP.
(§2) Data were corrected for radioligand occupancy using the Cheng-Prusoff equation in Prism; as such data are reported as pKi. Emax and EC50 were estimated from concentration-response curves using with a 3-parameter logistic equation in Prism (v7). These values are a composite of functional affinity, efficacy and stimulus response coupling. […] Significance was accepted at P < 0.05.

hCTR E294A = molecular target: T2, hCTR E294A (Homo sapiens, UniProt P30988, E294A)
T2 construct: c-Myc (N); expressed in transfected cells
T2 sequence (P30988 25-474 E294A): T1 sequence (P30988 25-474 S364A) with E270A, A340S
Description: as §1, §2

hCTR N286A = molecular target: T3, hCTR N286A (Homo sapiens, UniProt P30988, N286A)
T3 construct: c-Myc (N); expressed in transfected cells
T3 sequence (P30988 25-474 N286A): T1 sequence (P30988 25-474 S364A) with N262A, A340S
Description: as §1, §2

hCTR N365A = molecular target: T4, hCTR N365A (Homo sapiens, UniProt P30988, N365A)
T4 construct: c-Myc (N); expressed in transfected cells
T4 sequence (P30988 25-474 N365A): T1 sequence (P30988 25-474 S364A) with A340S, N341A
Description: as §1, §2

hCTR D373A = molecular target: T5, hCTR D373A (Homo sapiens, UniProt P30988, D373A)
T5 construct: c-Myc (N); expressed in transfected cells
T5 sequence (P30988 25-474 D373A): T1 sequence (P30988 25-474 S364A) with A340S, D349A
Description: as §1, §2

[1] = IP1, CV1-FlpIn cells, 60 min, LiCl

EC50 (hCTR S364A; [1]) [nM] | EC50 (hCTR E294A; [1]) [nM] | EC50 (hCTR N286A; [1]) [nM] | EC50 (hCTR N365A; [1]) [nM] | EC50 (hCTR D373A; [1]) [nM] | Compound | Emax (hCTR S364A) [%] | Emax (hCTR E294A) [%] | Emax (hCTR N286A) [%] | Emax (hCTR N365A) [%] | Emax (hCTR D373A) [%]
 |  |  |  |  | CC[C@H](C)[C@H](NC(=O)[C@H](C)NC(=O)[C@@H](NC(=O)[C@H](CCC(N)=O)NC(=O)[C@@H]1CCCN1C(=O)[C@H](Cc1ccccc1)NC(=O)[C@@H](NC(=O)[C@H](Cc1c[nH]cn1)NC(=O)[C@H](Cc1ccccc1)NC(=O)[C@H](CCCCN)NC(=O)[C@H](CC(N)=O)NC(=O)[C@H](Cc1ccccc1)NC(=O)[C@H](CC(=O)O)NC(=O)[C@H](CCC(N)=O)NC(=O)[C@@H](NC(=O)[C@H](Cc1ccc(O)cc1)NC(=O)[C@@H](NC(=O)CNC(=O)[C@H](CC(C)C)NC(=O)[C@H](CCSC)NC(=O)[C@@H]1CSSC[C@H](N)C(=O)NCC(=O)N[C@@H](CC(N)=O)C(=O)N[C@@H](CC(C)C)C(=O)N[C@@H](CO)C(=O)N[C@@H]([C@@H](C)O)C(=O)N1)[C@@H](C)O)[C@@H](C)O)[C@@H](C)O)[C@@H](C)O)C(=O)NCC(=O)N[C@H](C(=O)NCC(=O)N[C@@H](C)C(=O)N1CCC[C@H]1C(N)=O)C(C)C [hCT] | 93 ± 8 | 57 ± 6 | 40 ± 3 | 81 ± 6 | 102 ± 10
6.92 | 1.29 | 0.562 | 2.24 | 14.8 | CSCC[C@H](NC(=O)CNC(=O)[C@H](CO)NC(=O)[C@H](Cc1ccccc1)NC(=O)[C@H](CCCNC(=N)N)NC(=O)[C@H](Cc1c[nH]cn1)NC(=O)[C@H](Cc1ccccc1)NC(=O)[C@H](CC(N)=O)NC(=O)[C@H](CC(N)=O)NC(=O)[C@H](CC(C)C)NC(=O)[C@H](CC(N)=O)NC(=O)[C@H](CCCNC(=N)N)NC(=O)[C@H](Cc1c[nH]c2ccccc12)NC(=O)[C@H](Cc1ccc(O)cc1)NC(=O)[C@H](C)NC(=O)[C@H](CO)NC(=O)[C@H](CC(C)C)NC(=O)[C@@H](NC(=O)[C@@H]1CSSC[C@H](N)C(=O)N[C@@H](CO)C(=O)N[C@@H](CC(N)=O)C(=O)N[C@@H](CC(C)C)C(=O)N[C@@H](CO)C(=O)N[C@@H]([C@@H](C)O)C(=O)N1)C(C)C)C(=O)NCC(=O)N[C@@H](Cc1ccccc1)C(=O)NCC(=O)N1CCC[C@H]1C(=O)N[C@@H](CCC(=O)O)C(=O)N[C@H](C(=O)N1CCC[C@H]1C(N)=O)[C@@H](C)O [pCT] (H-CSNLSTCVLSAYWRNLNNFHRFSGMGFGPETP-NH2; disulfide 1-7) | 93 ± 6 | 119 ± 8 | 76 ± 6 | 68 ± 6 | 46 ± 3
 |  |  |  |  | CC(C)C[C@H](NC(=O)[C@H](CCCCN)NC(=O)CNC(=O)[C@H](CC(C)C)NC(=O)[C@@H](NC(=O)[C@@H]1CSSC[C@H](N)C(=O)N[C@@H](CO)C(=O)N[C@@H](CC(N)=O)C(=O)N[C@@H](CC(C)C)C(=O)N[C@@H](CO)C(=O)N[C@@H]([C@@H](C)O)C(=O)N1)C(C)C)C(=O)N[C@@H](CO)C(=O)N[C@@H](CCC(N)=O)C(=O)N[C@@H](CCC(=O)O)C(=O)N[C@@H](CC(C)C)C(=O)N[C@@H](Cc1c[nH]cn1)C(=O)N[C@@H](CCCCN)C(=O)N[C@@H](CC(C)C)C(=O)N[C@@H](CCC(N)=O)C(=O)N[C@H](C(=O)N[C@@H](Cc1ccc(O)cc1)C(=O)N1CCC[C@H]1C(=O)N[C@@H](CCCNC(=N)N)C(=O)N[C@H](C(=O)N[C@@H](CC(N)=O)C(=O)N[C@H](C(=O)NCC(=O)N[C@@H](CO)C(=O)NCC(=O)N[C@H](C(=O)N1CCC[C@H]1C(N)=O)[C@@H](C)O)[C@@H](C)O)[C@@H](C)O)[C@@H](C)O [sCT] | 87 ± 6 | 84 ± 5 | 59 ± 5 | 66 ± 4 | 78 ± 6

From publication PMC5908784, “Extracellular loops 2 and 3 of the calcitonin receptor selectively modify agonist binding and efficacy” (Biochemical Pharmacology, 2018)
